In ChEMBL document CHEMBL1135979, “Novel sigma receptor ligands. Part 2. SAR of spiro[[2]benzopyran-1,4'-piperidines] and spiro[[2]benzofuran-1,4'-piperidines] with carbon substituents in position 3” (J Med Chem, 2002):

Columns and labels:
Rattus norvegicus = species on record: Rattus norvegicus; assay: Ratio of binding affinity towards Sigma opioid receptor type 1 versus Sigma opioid receptor type 2
[1] = target: Sigma-2 receptor (Rattus norvegicus); assay: Ability to displace [3H]ditolylguanidine in the presence of 100 nM (+)-pentazocine from Sigma opioid receptor type 2 of rat liver
[2] = target: Sigma non-opioid intracellular receptor 1 (Cavia porcellus); assay: Ability to displace [3H](+)-pentazocine from Sigma opioid receptor type 1 of guinea pig brain

Row | Selectivity (Rattus norvegicus) | Ki [1] | Ki [2] | SMILES
1 | 124 | – | – | CCOC(=O)CC1Cc2ccccc2C2(CCN(Cc3ccccc3)CC2)O1 (stereo not drawn)
2 | 449 | – | – | CCOC(=O)CC1OC2(CCN(Cc3ccccc3)CC2)c2ccccc21 (stereo not drawn)
3 | 768 | – | – | N#CCC1OC2(CCN(Cc3ccccc3)CC2)c2ccccc21 (stereo not drawn)
4 | 668 | – | – | OCCC1Cc2ccccc2C2(CCN(Cc3ccccc3)CC2)O1 (stereo not drawn)
5 | 295 | – | – | N#CCC1Cc2ccccc2C2(CCN(Cc3ccccc3)CC2)O1 (stereo not drawn)
6 | 236 | 513 nM | 2.17 nM | OC1Cc2ccccc2C2(CCN(Cc3ccccc3)CC2)O1 (stereo not drawn)
7 | 292 | – | – | OCC1Cc2ccccc2C2(CCN(Cc3ccccc3)CC2)O1 (stereo not drawn)
8 | 796 | – | – | CCOC(=O)C1OC2(CCN(Cc3ccccc3)CC2)c2ccccc21 (stereo not drawn)
9 | 1130 | – | – | CCOC(=O)C1Cc2ccccc2C2(CCN(Cc3ccccc3)CC2)O1 (stereo not drawn)
10 | 29 | – | – | CNCCC1Cc2ccccc2C2(CCN(Cc3ccccc3)CC2)O1 (stereo not drawn)
11 | 180 | – | – | O=CCC1Cc2ccccc2C2(CCN(Cc3ccccc3)CC2)O1 (stereo not drawn)
